Experiment [1] addresses T1, hVR1 (Homo sapiens, UniProt Q8NER1).
T1 construct: expressed in transfected cells; host or cells: CHO K1 cells (ECACC), stably transfected
Put plainly: Functional test on human VR1, NADA (N-arachidonoyl dopamine) stimulus. Particulars: for Ki: includes values given in brackets after pAG, read-out: Ki (human being) [nM] NADA. Format: cell-based, human being. Also on record: key to Ki (human being) NADA: agonist / partial agonist / no effect: AG=agonist; pAG=partial agonist; NE=no effect. The text has this: II. Functional Tests Carried Out on the Vanilloid Receptor (VR1)
The agonistic or antagonistic effect of the substances to be tested on the vanilloid receptor 1 (VR1) can also be determined using the following assay. In this assay, the influx of Ca^2+ through the channel is quantified with the aid of a Ca^2+-sensitive dye (type Fluo-4, Molecular Probes Europe BV, Leiden, the Netherlands) in a fluorescent imaging plate reader (FLIPR, Molecular Devices, Sunnyvale, USA).
Chinese hamster ovary cells (CHO K1 cells, European Collection of Cell Cultures (ECACC) United Kingdom) are stably transfected with the VR1 gene. For functional testing, these cells are plated out on poly-D-lysine-coated black 96-well plates having a clear base (BD Biosciences, Heidelberg, Germany) at a density of 25,000 cells/well. The cells are incubated overnight at 37° C. and 5% CO2 in a culture medium (Ham's F12 nutrient mixture, 10% by volume of FCS (foetal calf serum), 18 μg/ml of L-proline). The next day the cells are incubated with Fluo-4 (Fluo-4 2 μM, 0.01% by volume of Pluronic F127, Molecular Probes in HBSS (Hank's buffered saline solution), Gibco Invitrogen GmbH, Karlsruhe, Germany) for 30 minutes at 37° C. Subsequently, the plates are washed three times with HBSS buffer and after further incubation for 15 minutes at RT used for Ca^2+ measurement in a FLIPR assay. The Ca^2+-dependent fluorescence is measured before and after the addition of the substances to be tested (λex wavelength=488 nm, λem=540 nm). Quantification is carried out by measuring the highest fluorescence intensity (FC, fluorescence counts) over time.
The FLIPR protocol consists of 2 substance additions. First the compounds to be tested (10 μM) are pipetted onto the cells and the Ca^2+ influx is compared with the control (capsaicin 10 μM) (% activation based on the Ca^2+ signal after the addition of 10 μM of capsaicin). […]
Desensitising agonists and antagonists led to suppression of the Ca^2+ influx. The % inhibition is calculated compared to the maximum achievable inhibition with 10 μM of capsaicin.
Starting from the percentage displacement caused by different concentrations of the compounds to be tested of general formula I, IC50 inhibitory concentrations which cause a 50-per cent displacement of capsaicin were calculated. Ki values for the test substances were obtained by conversion by means of the Cheng-Prusoff equation (Cheng, Prusoff; Biochem. Pharmacol. 22, 3099-3108, 1973).
NADA=N-arachidonoyl dopamine

In experiment [2] the target is T1, hVR1. The experiment in a line: Functional test on hVR1 after pH stimulus. The format is cell-based, human being. Also on record: key to IC50 (human being) hVR1, pH: agonist / partial agonist / no effect: AG=agonist; pAG=partial agonist; NE=no effect. Conditions: for inhibition at 10 µM: read-out: IC50 (human being) hVR1, pH: inhibition (as a percentage).
The target of experiment [3] is T1, hVR1. The experiment in a line: Functional test on VR1, FLIPR Ca2+ influx in transfected CHO K1 cells, capsaicin. Format: cell-based, human being. Also on record: key to Ki (human being) [nM] Cap: agonist / partial agonist / no effect: AG=agonist; pAG=partial agonist; NE=no effect. Particulars: for Ki: includes values given in brackets after pAG, read-out: Ki (human being) [nM] Cap.

For experiment [4], the target named is T1, hVR1. The experiment in a line: Functional test on human VR1, 45° C. stimulus. Format: cell-based, human being. Also on record: key to IC50 (human being), 45° C.: agonist / partial agonist / no effect: AG=agonist; pAG=partial agonist; NE=no effect.
Experiment [5] concerns the target T2, rat-species vanilloid receptor 1 (VR1/TRPV1) (Rattus norvegicus, UniProt O35433).
T2 construct: endogenous in cells; host or cells: primary cells dissociated from rat dorsal root ganglia (DRG), cultured 2-3 days with NGF
Put plainly: Functional testing on the vanilloid receptor 1, FLIPR Ca2+ influx in rat DRG cells, capsaicin. Also on record: key to Ki (rat) [nM] Cap: agonist / partial agonist / no effect: AG=agonist; pAG=partial agonist; NE=no effect. Conditions: for Ki: capsaicin (Cap), includes values given in brackets after pAG. The format is cell-based. An excerpt: I. Functional Testing Carried Out on the Vanilloid Receptor 1 (VRI/TRPV1 Receptor)
The agonistic or antagonistic effect of the substances to be tested on the rat-species vanilloid receptor 1 (VR1/TRPV1) can be determined using the following assay. In this assay, the influx of Ca^2+ through the receptor channel is quantified with the aid of a Ca^2+-sensitive dye (type Fluo-4, Molecular Probes Europe BV, Leiden, the Netherlands) in a fluorescent imaging plate reader (FLIPR, Molecular Devices, Sunnyvale, USA).
Complete medium: 50 ml HAMS F12 nutrient mixture (Gibco Invitrogen GmbH, Karlsruhe, Germany) with
10% by volume of FCS (foetal calf serum, Gibco Invitrogen GmbH, Karlsruhe, Germany, heat-inactivated);
2 mM L-glutamine (Sigma, Munich, Germany);
1% by weight of AA solution (antibiotic/antimyotic solution, PAA, Pasching, Austria) and 25 ng/ml NGF medium (2.5 S, Gibco Invitrogen GmbH, Karlsruhe, Germany)
Cell culture plate: Poly-D-lysine-coated, black 96-well plates having a clear base (96-well black/clear plate, BD Biosciences, Heidelberg, Germany) are additionally coated with laminin (Gibco Invitrogen GmbH, Karlsruhe, Germany), the laminin being diluted with PBS (Ca—Mg-free PBS, Gibco Invitrogen GmbH, Karlsruhe, Germany) to a concentration of 100 μg/ml. Aliquots having a laminin concentration of 100 μg/ml are removed and stored at −20° C. The aliquots are diluted with PBS in a ratio of 1:10 to 10 μg/ml of laminin and respectively 50 μL of the solution are pipetted into a recess in the cell culture plate. The cell culture plates are incubated for at least two hours at 37° C., the excess solution is removed by suction and the recesses are each washed twice with PBS. The coated cell culture plates are stored with excess PBS which is not removed until just before the feeding of the cells.
Preparation of the Cells:
The vertebral column is removed from decapitated rats and placed immediately into cold HBSS buffer (Hank's buffered saline solution, Gibco Invitrogen GmbH, Karlsruhe, Germany), i.e. buffer located in an ice bath, mixed with 1% by volume (per cent by volume) of an AA solution (antibiotic/antimyotic solution, PAA, Pasching, Austria). The vertebral column is cut longitudinally and removed together with fasciae from the vertebral canal. Subsequently, the dorsal root ganglia (DRG) are removed and again stored in cold HBSS buffer mixed with 1% by volume of an AA solution. The DRG, from which all blood remnants and spinal nerves have been removed, are transferred in each case to 500 μL of cold type 2 collagenase (PAA, Pasching, Austria) and incubated for 35 minutes at 37° C. After the addition of 2.5% by volume of trypsin (PAA, Pasching, Austria), incubation is continued for 10 minutes at 37° C. After complete incubation, the enzyme solution is carefully pipetted off and 500 μL of complete medium are added to each of the remaining DRG. The DRG are respectively suspended several times, drawn through cannulae No. 1, No. 12 and No. 16 using a syringe and transferred to a 50 ml Falcon tube which is filled up to 15 ml with complete medium. The contents of each Falcon tube are respectively filtered through a 70 μm Falcon filter element and centrifuged for 10 minutes at 1,200 rpm and RT. The resulting pellet is respectively taken up in 250 μL of complete medium and the cell count is determined.
The number of cells in the suspension is set to 3×10^5 per ml and 150 μL of this suspension are in each case introduced into a recess in the cell culture plates coated as described hereinbefore. In the incubator the plates are left for two to three days at 37° C., 5% by volume of CO2 and 95% relative humidity. […]

Where [6] appears, read: read-out: IC50 (human being), 45° C.: inhibition (as a percentage).

The structures appear in SMILES notation.

T2 sequence (O35433 whole entry): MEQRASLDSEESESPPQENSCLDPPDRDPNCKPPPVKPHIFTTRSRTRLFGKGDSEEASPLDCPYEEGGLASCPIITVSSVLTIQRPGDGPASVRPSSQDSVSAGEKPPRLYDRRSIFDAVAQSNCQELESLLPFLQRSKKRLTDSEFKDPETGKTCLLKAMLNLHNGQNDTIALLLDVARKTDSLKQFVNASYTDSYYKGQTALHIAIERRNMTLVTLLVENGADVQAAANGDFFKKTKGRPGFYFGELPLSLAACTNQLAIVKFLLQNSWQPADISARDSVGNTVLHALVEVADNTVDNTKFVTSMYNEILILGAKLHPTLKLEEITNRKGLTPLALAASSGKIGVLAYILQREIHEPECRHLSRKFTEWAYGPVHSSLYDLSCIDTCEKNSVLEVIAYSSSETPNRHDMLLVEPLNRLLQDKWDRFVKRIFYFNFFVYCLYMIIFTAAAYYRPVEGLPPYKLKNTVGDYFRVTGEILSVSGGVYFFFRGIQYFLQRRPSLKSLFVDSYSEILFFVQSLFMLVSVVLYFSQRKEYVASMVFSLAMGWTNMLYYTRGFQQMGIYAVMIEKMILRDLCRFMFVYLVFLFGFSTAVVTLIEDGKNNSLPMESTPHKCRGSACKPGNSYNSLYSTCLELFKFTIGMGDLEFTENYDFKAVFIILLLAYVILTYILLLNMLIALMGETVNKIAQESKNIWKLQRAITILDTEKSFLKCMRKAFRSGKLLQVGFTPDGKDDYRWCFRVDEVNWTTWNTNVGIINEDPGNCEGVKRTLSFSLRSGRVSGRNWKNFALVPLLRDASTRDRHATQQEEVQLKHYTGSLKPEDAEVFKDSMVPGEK
T1 sequence (Q8NER1 whole entry): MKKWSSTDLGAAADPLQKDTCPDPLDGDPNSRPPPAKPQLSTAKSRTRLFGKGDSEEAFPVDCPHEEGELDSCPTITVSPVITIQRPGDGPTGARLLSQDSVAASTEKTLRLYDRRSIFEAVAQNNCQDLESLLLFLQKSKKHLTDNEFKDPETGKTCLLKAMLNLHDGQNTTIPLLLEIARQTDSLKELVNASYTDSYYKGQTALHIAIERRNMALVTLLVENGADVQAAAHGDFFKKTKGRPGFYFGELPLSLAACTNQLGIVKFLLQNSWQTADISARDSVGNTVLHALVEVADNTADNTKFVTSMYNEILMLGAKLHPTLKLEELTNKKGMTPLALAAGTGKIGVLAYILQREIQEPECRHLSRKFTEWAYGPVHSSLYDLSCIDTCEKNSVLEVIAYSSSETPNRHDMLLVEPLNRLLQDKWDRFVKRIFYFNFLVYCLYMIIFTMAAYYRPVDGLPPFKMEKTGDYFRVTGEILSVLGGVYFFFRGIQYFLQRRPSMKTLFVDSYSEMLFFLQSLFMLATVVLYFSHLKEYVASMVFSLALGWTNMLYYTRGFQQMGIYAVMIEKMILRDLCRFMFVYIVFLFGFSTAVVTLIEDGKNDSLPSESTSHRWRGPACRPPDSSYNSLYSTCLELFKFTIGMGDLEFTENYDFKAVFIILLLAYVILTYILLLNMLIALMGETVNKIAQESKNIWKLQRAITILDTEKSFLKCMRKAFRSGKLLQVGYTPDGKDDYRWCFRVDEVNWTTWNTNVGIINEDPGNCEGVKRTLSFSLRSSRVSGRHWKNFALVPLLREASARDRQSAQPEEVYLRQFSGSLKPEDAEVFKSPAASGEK

Turning to `CC(C(=O)NCc1cc(C(C)(C)C)nn1-c1cccc(Cl)c1)c1ccc2c(c1)CCN2S(C)(=O)=O` (centres unmarked) [Example 10, N-((3-tert-butyl-1-(3-chlorophenyl)-1H-pyrazol-5-yl)methyl)-2-(1-(methylsulphonyl)indolin-5-yl)propanamide], on hVR1 [1], the “Ki (human being) NADA: agonist / partial agonist / no effect” value is listed as “pAG”. Also, the inhibition at 10 µM on hVR1 [2] was determined as 42%. Moreover, at hVR1 [3], the “Ki (human being) [nM] Cap: agonist / partial agonist / no effect” value is on record as “pAG”. The Ki on hVR1 [3] (capsaicin (Cap)) was determined as 75.4 nM. Besides, the inhibition at 2 µM on hVR1 [4] (setting [6]) was 6%.

As to `CC(C)(C)c1cc(CNC(=O)Cc2ccc3c(c2)OCCO3)n(-c2ccc(Cl)cc2)n1` [Example 12, N-((3-tert-butyl-1-(4-chlorophenyl)-1H-pyrazol-5-yl)methyl)-2-(2,3-dihydrobenzo[b][1,4]dioxin-6-yl)acetamide], the inhibition at 2 µM at hVR1 [1] (@ 2 μM, read-out: Ki (human being) NADA column: inhibition (as a percentage)) was 58%; on hVR1 [4] (setting [6]), 18%. Also, the Ki was found to be 77.9 nM on hVR1 [3] (capsaicin (Cap)) and 135 nM in experiment [5].

Turning to `CC(C(=O)NCc1cc(C(C)(C)C)nn1-c1cccc(Cl)c1)c1ccc2ocnc2c1` (centres unmarked) [Example 40, 2-(benzo[d]oxazol-5-yl)-N-((3-tert-butyl-1-(3-chlorophenyl)-1H-pyrazol-5-yl)methyl)propanamide], the figures for the inhibition constant Ki (at hVR1 [1]; at hVR1 [3] (capsaicin (Cap)); in experiment [5]) were 1.1 nM, 4.2 nM and 8.4 nM, respectively.

As for `CC(C(=O)NCc1cc(C(C)(C)C)nn1-c1cccc(Cl)c1)c1ccc2cc(O)ccc2c1` (centres unmarked) [Example 49, N-((3-tert-butyl-1-(3-chlorophenyl)-1H-pyrazol-5-yl)methyl)-2-(6-hydroxynaphthalen-2-yl)propanamide], the “Ki (human being) NADA: agonist / partial agonist / no effect” value on hVR1 [1] was “AG”. The “IC50 (human being) hVR1, pH: agonist / partial agonist / no effect” value at hVR1 [2] is “AG”. The “Ki (human being) [nM] Cap: agonist / partial agonist / no effect” value at hVR1 [3] was “AG”. For the same compound, the “IC50 (human being), 45° C.: agonist / partial agonist / no effect” value at hVR1 [4] is reported as “AG”.

`CC(C(=O)NCc1cc(C(F)(F)F)nn1-c1cccc(Cl)c1)c1cccc2ccc(O)cc12` (centres unmarked) [Example 58, N-((1-(3-chlorophenyl)-3-(trifluoromethyl)-1H-pyrazol-5-yl)methyl)-2-(7-hydroxynaphthalen-1-yl)propanamide]: at hVR1 [2] (includes value printed in brackets after pAG, read-out: IC50 (human being) hVR1 [nM], pH), the IC50 worked out at 4930 nM. The Ki stood at 0.7 nM on hVR1 [3] (capsaicin (Cap)) and 7.6 nM in experiment [5]. The inhibition at 2.5 µM at hVR1 [4] (@ 2.5 μM, read-out: IC50 (human being), 45° C.: inhibition (as a percentage)) worked out at 41%.

On to `CC(C(=O)NCc1cc(C(C)(C)C)nn1-c1cccc(Cl)c1)c1cccc2cnccc12` (centres unmarked) [Example 63, N-((3-tert-butyl-1-(3-chlorophenyl)-1H-pyrazol-5-yl)methyl)-2-(isoquinolin-5-yl)propanamide], for which, at hVR1 [2], the inhibition at 10 µM turned out to be 33%. In addition, the results for the Ki (at hVR1 [3] (capsaicin (Cap)); in experiment [5]) were 0.2 nM and 0.5 nM, respectively. Besides, the “Ki (rat) [nM] Cap: agonist / partial agonist / no effect” value in experiment [5] was “pAG”. Moreover, on hVR1 [4] (@ 0.6 μM, read-out: IC50 (human being), 45° C.: inhibition (as a percentage)), the inhibition at 0.6 µM was determined as 9%.

Regarding `CC(C(=O)NCc1cc(C(C)(C)C)nn1-c1cccc(Cl)c1)c1ccc2cccnc2c1` (centres unmarked) [Example 71, N-((3-tert-butyl-1-(3-chlorophenyl)-1H-pyrazol-5-yl)methyl)-2-(quinolin-7-yl)propanamide], the Ki on hVR1 [1] turned out to be 68.1 nM. Besides, at hVR1 [3] (CHO-K1, @ 10 μM, capsaicin (Cap), read-out: Ki (human being) Cap column: inhibition (as a percentage)), the inhibition at 10 µM is 18%. Moreover, the IC50 at hVR1 [4] (read-out: IC50 (human being) [nM], 45° C.) worked out at 2710 nM.

In the case of `CC(C(=O)NCc1cc(C(C)(C)C)nn1-c1cccc(Cl)c1)c1ccc2nccnc2c1` (centres unmarked) [Example 77, N-((3-tert-butyl-1-(3-chlorophenyl)-1H-pyrazol-5-yl)methyl)-2-(quinoxalin-6-yl)propanamide], the inhibition at 10 µM was 23% on hVR1 [2] and -17% at hVR1 [4] (@ 10 μM, read-out: IC50 (human being), 45° C.: inhibition (as a percentage)). For the same compound, the results for the Ki (on hVR1 [3] (capsaicin (Cap)); in experiment [5]) were 35.4 nM and 34.2 nM, respectively.

As to `CC(C)(C)c1cc(CNC(=O)Nc2cncc3ccccc23)n(-c2cccc(Cl)c2)n1` [Example 112, 1-((3-tert-butyl-1-(3-chlorophenyl)-1H-pyrazol-5-yl)methyl)-3-(isoquinolin-4-yl)urea], on hVR1 [1], the “Ki (human being) NADA: agonist / partial agonist / no effect” value was “pAG”. Also, the Ki on hVR1 [1] is 6.4 nM; on hVR1 [3] (capsaicin (Cap)), 7.3 nM; in experiment [5], 18.2 nM.

`CC(C)(C)c1cc(CNC(=O)Nc2cnc3ccccc3c2)n(-c2cccc(Cl)c2)n1` [Example 113, 1-((3-tert-butyl-1-(3-chlorophenyl)-1H-pyrazol-5-yl)methyl)-3-(quinolin-3-yl)urea]: the inhibitory constant (Ki) on hVR1 [1] came to 33.3 nM; at hVR1 [3] (capsaicin (Cap)), 70.7 nM.
